Test results: the supplement of paper PMC10307832

Legend:
Test in all cases: relative viability (nuclei count vs DMSO), 5 days (fraction); higher = more cells survive
VE-821 + Tozasertib = compound: CS(=O)(=O)c1ccc(-c2cnc(N)c(C(=O)Nc3ccccc3)n2)cc1 [VE-821] + Cc1cc(Nc2cc(N3CCN(C)CC3)nc(Sc3ccc(NC(=O)C4CC4)cc3)n2)n[nH]1 [Tozasertib] (partner 0.1 µM)
Method in brief: (§1)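 Relative viability equals treated-well nuclei counts divided by vehicle-well nuclei counts. Counts came from 4× images of lung cancer cell lines grown in 1536-well plates for 5 days after pin-tool dosing on the day after seeding. Dosing used one drug alone or a fixed anchor-drug dose plus five library-drug doses (not always all listed) in √10 steps, and values are medians of duplicate plates.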

Ruxolitinib + Foretinib = compound: N#CC[C@H](C1CCCC1)n1cc(-c2ncnc3[nH]ccc23)cn1 [Ruxolitinib] + COc1cc2c(Oc3ccc(NC(=O)C4(C(=O)Nc5ccc(F)cc5)CC4)cc3F)ccnc2cc1OCCCN1CCOCC1 [Foretinib] (partner 0.25 µM)
Method in brief: as §1

VE-821 + Foretinib = compound: CS(=O)(=O)c1ccc(-c2cnc(N)c(C(=O)Nc3ccccc3)n2)cc1 [VE-821] + COc1cc2c(Oc3ccc(NC(=O)C4(C(=O)Nc5ccc(F)cc5)CC4)cc3F)ccnc2cc1OCCCN1CCOCC1 [Foretinib] (partner 0.25 µM)
Method in brief: as §1

VE-821 + Trametinib = compound: CS(=O)(=O)c1ccc(-c2cnc(N)c(C(=O)Nc3ccccc3)n2)cc1 [VE-821] + CC(=O)Nc1cccc(-n2c(=O)n(C3CC3)c(=O)c3c(Nc4ccc(I)cc4F)n(C)c(=O)c(C)c32)c1 [Trametinib] (partner 0.02 µM)
Method in brief: as §1

| Cell Line | relative viability (VE-821 + Tozasertib; first compound 0.08 µM) | relative viability (VE-821 + Tozasertib; first compound 0.253 µM) | relative viability (VE-821 + Tozasertib; first compound 0.8 µM) | relative viability (VE-821 + Tozasertib; first compound 2.53 µM) | relative viability (VE-821 + Tozasertib; first compound 8 µM) | relative viability (Ruxolitinib + Foretinib; first compound 0.253 µM) | relative viability (Ruxolitinib + Foretinib; first compound 0.8 µM) | relative viability (Ruxolitinib + Foretinib; first compound 2.53 µM) | relative viability (Ruxolitinib + Foretinib; first compound 8 µM) | relative viability (VE-821 + Foretinib; first compound 0.08 µM) | relative viability (VE-821 + Foretinib; first compound 0.253 µM) | relative viability (VE-821 + Foretinib; first compound 0.8 µM) | relative viability (VE-821 + Foretinib; first compound 2.53 µM) | relative viability (VE-821 + Foretinib; first compound 8 µM) | relative viability (VE-821 + Trametinib; first compound 0.08 µM) | relative viability (VE-821 + Trametinib; first compound 0.253 µM) | relative viability (VE-821 + Trametinib; first compound 0.8 µM) | relative viability (VE-821 + Trametinib; first compound 2.53 µM) | relative viability (VE-821 + Trametinib; first compound 8 µM) | relative viability (Ruxolitinib + Foretinib; first compound 0.08 µM) |
| --- | --- | --- | --- | --- | --- | --- | --- | --- | --- | --- | --- | --- | --- | --- | --- | --- | --- | --- | --- | --- |
| ABC-1 | 0.201 | 0.17 | 0.15 | 0.181 | 0.16 | 1.35 | 1.33 | 0.975 | 0.99 | 1.41 | 0.877 | 0.859 | 1.01 | 0.756 |  |  |  |  |  |  |
| LOU-NH91 | 0.69 | 0.666 | 0.665 | 0.701 | 0.54 | 0.968 | 1.02 | 0.877 | 0.876 | 0.982 | 0.946 | 0.86 | 0.986 | 0.928 | 0.813 | 0.784 | 0.776 | 0.821 | 0.752 |  |
| NCI-H727 | 0.601 | 0.633 | 0.505 | 0.67 | 0.488 | 0.976 | 1.3 | 0.873 | 1.03 | 1.27 | 0.982 | 0.823 | 0.789 | 0.405 | 0.398 | 0.432 | 0.416 | 0.422 | 0.396 | 1.21 |
| NCI-H2023 | 0.401 | 0.297 | 0.129 | 0.107 | 0.0977 | 0.897 | 0.947 | 0.978 | 1.32 | 0.998 | 0.785 | 0.511 | 0.383 | 0.343 | 0.575 | 0.488 | 0.349 | 0.252 | 0.181 | 0.682 |
| NCI-H1563 |  |  |  |  |  | 0.976 | 0.997 | 0.852 | 0.94 | 0.937 | 0.903 | 0.769 | 0.876 | 0.83 |  |  |  |  |  | 0.994 |
| LCLC-103H | 0.505 | 0.424 | 0.389 | 0.458 | 0.362 | 0.672 | 0.881 | 0.71 | 0.661 | 0.926 | 0.876 | 0.82 | 0.914 | 0.572 | 0.748 | 0.662 | 0.675 | 0.68 | 0.663 | 0.808 |
| HARA | 0.109 | 0.111 | 0.106 | 0.112 | 0.0878 | 0.851 | 1.05 | 0.879 | 0.806 | 1.06 | 0.888 | 0.798 | 0.812 | 0.574 | 0.686 | 1.08 | 0.553 | 0.767 | 0.608 | 0.882 |
| RERF-LC-KJ | 0.539 | 0.478 | 0.483 | 0.349 | 0.274 | 0.95 | 0.914 | 0.921 | 0.927 | 0.861 | 0.868 | 0.793 | 0.767 | 0.698 | 0.935 | 0.788 | 0.704 | 0.81 | 0.69 | 0.862 |
| NCI-H2009 | 0.871 | 0.74 | 0.633 | 0.737 | 0.734 | 1.27 | 1.23 | 1.15 | 0.876 | 1.34 | 1.26 | 1.1 | 1.28 | 1.23 | 0.266 | 0.287 | 0.254 | 0.263 | 0.174 | 1.21 |
